Reference: PMC8156934, “Photophysical Study and Biological Applications of Synthetic Chalcone-Based Fluorescent Dyes” (Molecules, 2021)
In brackets after ≈: the same amount, converted by molar mass. Read-outs that look alike come from different tables or passages of the source.

What was measured:
[1] = Photophysical properties (UV–Vis absorption and fluorescence spectra); type: physicochemical; conditions: for λabs absorption maximum wavelength / ∆λ stokes shifts (λem − λabs) / λem emission maximum wavelength / Φf fluorescence quantum yields: 2 µM; for λem emission maximum wavelength: excited at the maximum absorption wavelength; for Φf fluorescence quantum yields: n = 3, relative to fluorescein in 0.1 M NaOH
Experimental: All UV–Vis absorption and fluorescence spectra were recorded on a UV–Vis Spectrophotometer (Agilent Technologies Cary 300, Santa Clara, CA, USA) and a Spectrofluorometer (PerkinElmer LS55, Waltham, MA, USA), respectively. In both experiments, the stock solutions of chalcones 3a–f were prepared as 0.5 mM in DMSO. The appropriate amount of the stock solution was added to DMSO, MeOH, and 0.01 M PBS buffer (pH 7.4) with 3% Tween 80 (3 mL) to obtain the final concentration of 2 µM in the testing solutions. For fluorescence experiments, the emission spectra were recorded at the maximum absorbance wavelength of each compound. The fluorescent quantum yields (Φf) were calculated relative to fluorescein in 0.1 M NaOH as a standard (Φf = 0.95).

[2] = pH effect on fluorescence emission; type: physicochemical; conditions: 3% Tween 80
Experimental: Chalcones 3a–f (2 µM) were dissolved in commercial pH 1–12 buffers purchased from Merck (St. Louis, MO, USA) (glycine/NaCl/HCl for pH 1, citric acid/NaOH/HCl for pH 2–6, Na2HPO4/KH2PO4 for pH 7, boric acid/ KCl/NaOH for pH 8–11, Na3PO4/NaOH for pH 12) in the presence of Tween 80 (3% w/w). The actual pH values of the final buffer solutions were measured by a pH meter. The resulting solutions were examined by a Spectrofluorometer (PerkinElmer LS55) at the maximum absorbance wavelength of each compound.

[3] = Photo-stability test (photobleaching under 250 W blue light); type: physicochemical; conditions: DMSO, 250 W blue light (380–500 nm), after 30 min irradiation
Experimental: Chalcones 3a–f were dissolved in DMSO at the final concentration of 1 × 10^−6 M for measuring absorption and emission intensity. Then, 3a–f were irradiated at 250 W (blue-lamp) at a distance of 75 cm. The UV–Visible absorption and fluorescence spectra of the solutions were measured at different time points including 0, 1, 5, 10, 15, 20, and 30 min. Photo-stability was reported in terms of photobleaching absorption and emission (%) calculated from the change of absorption and emission intensity at the absorption and emission maxima before and after irradiation.

HEK-293 = experiment: Cell viability MTT assay, normal cells; type: cell-based; conditions: Homo sapiens
Experimental: (§1) For fluorescence imaging of living cells, human embryonic kidney 293 (HEK-293, ATCC) and human hepatoma cancer cell (HepG2, ATCC) were cultured in Dulbecco′s Modified Eagle′s Medium (DMEM, HyClone) supplemented with 10% Fetal Bovine Serum (FBS, Gibco, Carlsbad, CA, USA) and 1% Penicillin/Streptomycin Solution 100X (Corning, Corning, NY, USA). All cells were cultured in a humidified incubator at 37 °C with 5% CO2. HEK-293 and HepG2 cells, approximately 1 × 10^4 cells, were seeded on 8-well chambered cover glasses (LabTek, Nunc, Carlsbad, CA, USA) and incubated in complete medium for 24 h. After that, the cells were treated with 5 μM stock solutions of 3a–f in DMSO/cell culture medium containing 10% FBS (0.25% DMSO), for 0, 1, 3, and 6 h. Then, the cells were washed twice with 0.01 M PBS before being visualized under a Laser-Scanning Confocal Microscope (Nikon A1Rsi) with a 60× oil immersion objective lens and living cell workstation with the excitation channel at 488 nm.
(§2) The cells were seeded on a 96-well plate, approximately 7 × 10^3 cells per well, and incubated in complete medium for 24 h. After that, the cells were treated with 0, 1, 5, 10, 20, and 50 μM of chalcones 3a–f, and culturing continued for 24 h. After incubation, the cells were washed three times with 10 mM PBS and treated with […] of methylthiazolyldiphenyl-tetrazolium bromide (MTT reagent, 0.5 mg mL^−1, Sigma-Aldrich, St. Louis, MO, USA) for 2–3 h. After medium removal, DMSO was added to dissolve the formazan product, and cell viability was determined by UV–Vis absorption of the resulting formazan at a wavelength of 560 nm in a microplate reader (BMG Labtech/SPECTROstar Nano, Ortenberg, Germany).

HepG2 = experiment: Cell viability MTT assay, cancer cells; type: cell-based; conditions: Homo sapiens, HepG2, 24 h
Experimental: as §1, §2

E. coli 780 = experiment: Antibacterial activity test (MIC, MBC, growth curve); type: cell-based, Escherichia coli; conditions: for MBC / MIC: Escherichia coli
Experimental: (§3) All bacteria strains were obtained from the Thailand Institute of Scientific and Technological Research (TISTR). The antibacterial activity of chalcones 3a–f was determined by the minimal inhibitory concentration (MIC) and the minimal bactericidal concentration (MBC) against the Gram-positive (S. aureus 1466, TISTR 1466) and Gram-negative (E.coli 780, TISTR 780) bacteria. The stocks of chalcones 3a–f (0.60 mg/mL) were serially diluted in Muller–Hinton (MH) broth to obtain concentrations in the range of 250–1000 µM. The solutions of chalcones 3a–f (100 µL) at different concentrations were added in the culture of the tested bacteria (100 µL) at a concentration of 1 × 10^6 colony-forming units/mL (CFU/mL) in MH broth at 37 °C with shaking at 80 rpm. The bacterial numbers were determined by measuring the optical density at 600 nm by a UV–Vis spectrometer. […] To determine the MBC values, the bacterial cultures (10 µL) containing the solutions of chalcones 3a–f at MIC and three higher concentrations were dropped on MH agar plates.

S. aureus 1466 = experiment: as above; type: cell-based, Staphylococcus aureus; conditions: for MBC / MIC: Staphylococcus aureus
Experimental: as §3

[4] = HEK293, HEK-293, 24 h, MTT, read-out: IC50
[5] = E. coli 780, mean ± SD of three independent experiments, read-out: MBC
[6] = E. coli 780, mean ± SD of three independent experiments, read-out: MIC
[7] = S. aureus 1466, mean ± SD of three independent experiments, read-out: MBC
[8] = S. aureus 1466, mean ± SD of three independent experiments, read-out: MIC

Structure (SMILES) | ε molar absorptivity ([1]; DMSO) | λabs absorption maximum wavelength ([1]; DMSO) | ∆λ stokes shifts (λem − λabs) ([1]; DMSO) | λem emission maximum wavelength ([1]; DMSO) | Φf fluorescence quantum yields ([1]; DMSO) | ε molar absorptivity ([1]; MeOH) | λabs absorption maximum wavelength ([1]; MeOH) | ∆λ stokes shifts (λem − λabs) ([1]; MeOH) | λem emission maximum wavelength ([1]; MeOH) | Φf fluorescence quantum yields ([1]; MeOH) | ε molar absorptivity ([1]; PBS (3%w/w tween 80)) | λabs absorption maximum wavelength ([1]; PBS (3%w/w tween 80)) | ∆λ stokes shifts (λem − λabs) ([1]; PBS (3%w/w tween 80)) | λem emission maximum wavelength ([1]; PBS (3%w/w tween 80)) | Φf fluorescence quantum yields ([1]; PBS (3%w/w tween 80)) | fluorescence emission ([2]; pH range from 2 to 12, 2 µM) | % photobleaching of absorbance [3] | % photobleaching of fluorescence [3] | IC50 (HEK-293; [4]) | MBC (E. coli 780; [5]) | other results
Cc1ccc(C(=O)/C=C/c2ccc(N(C)C)cc2)cc1 [3e] | 32000 M⁻¹ cm⁻¹ | 420 nm | 119 nm | 539 nm | 0.50 ± 0.02 | 32000 M⁻¹ cm⁻¹ | 417 nm | 130 nm | 547 nm | 0.012 ± 0.007 | 28000 M⁻¹ cm⁻¹ | 420 nm | 101 nm | 521 nm | 0.18 ± 0.03 | Higher emission peaks | 46% | 21% | 96 µM | 1000 ± 0.02 µM (≈ 265 µg/mL) | IC50 (HepG2; MTT, read-out: IC50): 54 µM; MIC (E. coli 780; [6]): 375 ± 0.01 µM (≈ 99.5 µg/mL); MBC (S. aureus 1466; [7]): 1000 ± 0.02 µM (≈ 265 µg/mL); MIC (S. aureus 1466; [8]): 375 ± 0.03 µM (≈ 99.5 µg/mL)
CN(C)c1ccc(/C=C/C(=O)c2ccc(O)cc2)cc1 [3c] | 10000 M⁻¹ cm⁻¹ | 413 nm | 107 nm | 520 nm | 0.61 ± 0.04 | 10000 M⁻¹ cm⁻¹ | 414 nm | 132 nm | 546 nm | 0.017 ± 0.011 | 13000 M⁻¹ cm⁻¹ | 411 nm | 115 nm | 526 nm | 0.11 ± 0.02 | – | 37% | 50% | – | – | fluorescence emission ([2]; basic conditions (pH 9–12), 2 µM): reduced emission signals; IC50 (HEK-293; HEK293, 24 h): > 100 µM; IC50 (HepG2): 100 µM; MBC (E. coli 780; 780): 750 ± 0.01 µM (≈ 200 µg/mL); MIC (E. coli 780; 780): 250 ± 0.01 µM (≈ 66.8 µg/mL); MBC (S. aureus 1466; 1466): 1000 ± 0.01 µM (≈ 267 µg/mL); MIC (S. aureus 1466; 1466): 375 ± 0.01 µM (≈ 100 µg/mL)
COc1ccc(C(=O)/C=C/c2ccc(N(C)C)cc2)cc1 [3a] | 46000 M⁻¹ cm⁻¹ | 417 nm | 115 nm | 532 nm | 0.69 ± 0.04 | 30000 M⁻¹ cm⁻¹ | 417 nm | 132 nm | 549 nm | 0.013 ± 0.006 | 33000 M⁻¹ cm⁻¹ | 416 nm | 113 nm | 529 nm | 0.15 ± 0.02 | Higher emission peaks | 50% | 25% | > 100 µM | 750 ± 0.02 µM (≈ 211 µg/mL) | MIC (E. coli 780; [6]): 375 ± 0.01 µM (≈ 106 µg/mL); MBC (S. aureus 1466; [7]): 1000 ± 0.09 µM (≈ 281 µg/mL); MIC (S. aureus 1466; [8]): 375 ± 0.03 µM (≈ 106 µg/mL)

The next lines start with results.

ε molar absorptivity ([1]; DMSO) | λabs absorption maximum wavelength ([1]; DMSO) | ∆λ stokes shifts (λem − λabs) ([1]; DMSO) | λem emission maximum wavelength ([1]; DMSO) | Φf fluorescence quantum yields ([1]; DMSO) | ε molar absorptivity ([1]; MeOH) | λabs absorption maximum wavelength ([1]; MeOH) | ∆λ stokes shifts (λem − λabs) ([1]; MeOH) | λem emission maximum wavelength ([1]; MeOH) | Φf fluorescence quantum yields ([1]; MeOH) | ε molar absorptivity ([1]; PBS (3%w/w tween 80)) | λabs absorption maximum wavelength ([1]; PBS (3%w/w tween 80)) | ∆λ stokes shifts (λem − λabs) ([1]; PBS (3%w/w tween 80)) | λem emission maximum wavelength ([1]; PBS (3%w/w tween 80)) | Φf fluorescence quantum yields ([1]; PBS (3%w/w tween 80)) | fluorescence emission ([2]; pH range from 2 to 12, 2 µM) | % photobleaching of absorbance [3] | % photobleaching of fluorescence [3] | Structure (SMILES) | IC50 (HEK-293; [4]) | MBC (E. coli 780; [5]) | other results
46000 M⁻¹ cm⁻¹ | 422 nm | 94 nm | 516 nm | 0.10 ± 0.02 | 37000 M⁻¹ cm⁻¹ | 423 nm | 132 nm | 555 nm | 0.024 ± 0.015 | 44000 M⁻¹ cm⁻¹ | 422 nm | 120 nm | 542 nm | 0.17 ± 0.03 | Higher emission peaks | 51% | 30% | CN(C)c1ccc(/C=C/C(=O)c2ccc(N(C)C)cc2)cc1 [3d] | > 100 µM | 375 ± 0.01 µM (≈ 110 µg/mL) | IC50 (HepG2; MTT, read-out: IC50): 56 µM; bacterial growth (OD600 growth curve) (E. coli 780; E. coli 780, increasing concentration, 24 h): significantly inhibited; MIC (E. coli 780; [6]): 250 ± 0.01 µM (≈ 73.6 µg/mL); bacterial growth (OD600 growth curve) (S. aureus 1466; S. aureus 1466, increasing concentration, 24 h): significantly inhibited; MBC (S. aureus 1466; [7]): 1000 ± 0.01 µM (≈ 294 µg/mL); MIC (S. aureus 1466; [8]): 250 ± 0.01 µM (≈ 73.6 µg/mL)
31000 M⁻¹ cm⁻¹ | 431 nm | 129 nm | 560 nm | 0.34 ± 0.04 | 29000 M⁻¹ cm⁻¹ | 428 nm | 139 nm | 567 nm | 0.012 ± 0.007 | 37000 M⁻¹ cm⁻¹ | 427 nm | 93 nm | 520 nm | 0.11 ± 0.02 | Higher emission peaks | 26% | 43% | CN(C)c1ccc(/C=C/C(=O)c2cccs2)cc1 [3b] | > 100 µM | 750 ± 0.02 µM (≈ 193 µg/mL) | IC50 (HepG2; MTT, read-out: IC50): 45 µM; MIC (E. coli 780; [6]): 250 ± 0.02 µM (≈ 64.3 µg/mL); MBC (S. aureus 1466; [7]): 1000 ± 0.01 µM (≈ 257 µg/mL); MIC (S. aureus 1466; [8]): 375 ± 0.01 µM (≈ 96.5 µg/mL)
